Literature values as cited in patent US11066360B2, “Human plasma kallikrein inhibitors” (priority 2015, dated 2021).
Where a SMILES comes first, the peptide text is derived from it.

How the values were obtained:
[1] = system: rat models of arthritis
[2] = system: LPS- or bacterial-induced sepsis in animals
[3] = system: patients with hereditary angioedema (HAE); details: human, in vivo
[4] = system: mouse model of middle cerebral artery occlusion (MCAO)
[5] = system: sepsis patients

| Compound | lesions [2] | vascular permeability in multiple organs [2] | other results |
| --- | --- | --- | --- |
| Cl.NCC1CCC(C(=O)N[C@@H](Cc2ccccc2)C(=O)Nc2ccc(CC(=O)O)cc2)CC1 (some centres unmarked) [PKSI-527] |  |  | joint swelling [1]: reduce |
| NC(N)=NCCC[C@H](NC(=O)[C@H](Cc1ccccc1)NC(=O)[C@H]1CCCN1)C(=O)CCl [CMK, H-D-Pro-Phe-Arg-chloromethylketone] (HELM PEPTIDE1{[dP].F.R.[ClC[*:1]]}$$$$V2.0) | reduce | reduce |  |
| NC(N)=NCCC[C@@H](N)C(=O)N[C@@H](CCCN=C(N)N)C(=O)N1CCC[C@H]1C(=O)N1C[C@H](O)C[C@H]1C(=O)NCC(=O)N[C@@H](Cc1cccs1)C(=O)N[C@@H](CO)C(=O)N1Cc2ccccc2C[C@@H]1C(=O)N1[C@H](C(=O)N[C@@H](CCCN=C(N)N)C(=O)O)C[C@@H]2CCCC[C@@H]21 [Icatibant] |  |  | treating HAE [3]: effective |
| C1-inhibitor: a physiological inhibitor (C1-inhibitor) [Compound C1-inhibitor] | reduce | reduce | infarct size [4]: reduced; clinical improvement in sepsis patients [5]: Clinical improvement |
